# Results as given in patent publication US11331299B2, “Medicinal use of serrulatane diterpenes” (The University of Sydney, priority 2016, dated 2022).
# Read-outs that look alike come from different tables or passages of the source.
# Test system: 280 human cancer cell lines
# Experiment: OncoPanel cell proliferation assay (10-day)
# Assay type: cell-based
# Conditions: Homo sapiens; for IC50: read-out: Cell Count IC50; for EC50: read-out: Cell Count EC50; for GI50: read-out: Cell Count GI50
# [1] = SJRH30, SJRH30, Soft Tissue - Sarcoma
# [2] = SJSA-1, SJSA1, Soft Tissue - Osteosarcoma
# [3] = SK-LMS-1, SK-LMS-1, Soft Tissue - Sarcoma
# [4] = SK-MEL3, SK-MEL-3, Skin (Melanoma)
# [5] = SK-MEL-1, SK-MEL-1, Skin (Melanoma)
# [6] = SK-MEL-28, SK-MEL-28, Skin (Melanoma)
# [7] = SK-OV-3, SKOV3, Female GU - Ovary
# [8] = SK-UT-1, SK-UT-1, Soft Tissue - Sarcoma
# [9] = SW579, SW579, Endocrine - Thyroid
# [10] = SW684, SW684, Soft Tissue - Sarcoma
smiles,measurement,setting,value
"CC(C)=CCC[C@H](C)[C@@H]1CC[C@@H](C)c2c1cc(C)c(O)c2O [Compound 4, 7,8-dihydroxyserrulat-14-ene]",IC50,"SCaBER, Bladder",16.9 µM
same,EC50,"SH-4, Skin (Melanoma)",11.6 µM
same,GI50,"SH-4, Skin (Melanoma)",11.5 µM
same,IC50,"SH-4, Skin (Melanoma)",11.6 µM
same,EC50,"SHP77, SHP-77, Lung - SCLC",6.83 µM
same,GI50,"SHP77, SHP-77, Lung - SCLC",6.75 µM
same,IC50,"SHP77, SHP-77, Lung - SCLC",6.83 µM
same,EC50,[1],3.68 µM
same,GI50,[1],3.68 µM
same,IC50,[1],3.68 µM
same,EC50,[2],7.45 µM
same,GI50,[2],7.45 µM
same,IC50,[2],7.45 µM
same,EC50,"SK-BR-3, SK-BR-3, Breast",10.3 µM
same,GI50,"SK-BR-3, SK-BR-3, Breast",9.97 µM
same,IC50,"SK-BR-3, SK-BR-3, Breast",10.3 µM
same,EC50,[3],9.04 µM
same,GI50,[3],8.98 µM
same,IC50,[3],9.04 µM
same,EC50,[4],> 30 µM
same,GI50,[4],> 30 µM
same,IC50,[4],> 30 µM
same,EC50,[5],> 30 µM
same,GI50,[5],> 30 µM
same,IC50,[5],> 30 µM
same,EC50,[6],11.2 µM
same,GI50,[6],11.1 µM
same,IC50,[6],11.2 µM
same,EC50,"SK-MES-1, SKMES1, Lung - NSCLC",11.6 µM
same,GI50,"SK-MES-1, SKMES1, Lung - NSCLC",11.5 µM
same,IC50,"SK-MES-1, SKMES1, Lung - NSCLC",11.6 µM
same,EC50,"SK-N-AS, CNS - Neuroblastoma",5.86 µM
same,GI50,"SK-N-AS, CNS - Neuroblastoma",5.75 µM
same,IC50,"SK-N-AS, CNS - Neuroblastoma",5.86 µM
same,EC50,"SK-N-DZ, CNS - Neuroblastoma",11.9 µM
same,GI50,"SK-N-DZ, CNS - Neuroblastoma",11.5 µM
same,IC50,"SK-N-DZ, CNS - Neuroblastoma",11.9 µM
same,EC50,"SK-N-FI, CNS - Neuroblastoma",21.5 µM
same,GI50,"SK-N-FI, CNS - Neuroblastoma",20.6 µM
same,IC50,"SK-N-FI, CNS - Neuroblastoma",21.5 µM
same,EC50,[7],8.43 µM
same,GI50,[7],8.33 µM
same,IC50,[7],8.43 µM
same,EC50,"SK-PN-DW, Stomach",4.91 µM
same,GI50,"SK-PN-DW, Stomach",4.88 µM
same,IC50,"SK-PN-DW, Stomach",4.91 µM
same,EC50,[8],5.49 µM
same,GI50,[8],5.46 µM
same,IC50,[8],5.49 µM
same,EC50,"SKO-007, SKO-007, Myeloma",4.66 µM
same,GI50,"SKO-007, SKO-007, Myeloma",4.55 µM
same,IC50,"SKO-007, SKO-007, Myeloma",4.71 µM
same,EC50,"SNB-19, SNB-19, CNS - Glioma",13 µM
same,GI50,"SNB-19, SNB-19, CNS - Glioma",12.9 µM
same,IC50,"SNB-19, SNB-19, CNS - Glioma",13 µM
same,EC50,"SNU1, SNU-1, Stomach",6.99 µM
same,GI50,"SNU1, SNU-1, Stomach",6.98 µM
same,IC50,"SNU1, SNU-1, Stomach",6.99 µM
same,EC50,"SNU-5, SNU-5, Stomach",14.4 µM
same,GI50,"SNU-5, SNU-5, Stomach",14.2 µM
same,IC50,"SNU-5, SNU-5, Stomach",14.4 µM
same,EC50,"SNU-16, SNU-16, Stomach",11 µM
same,GI50,"SNU-16, SNU-16, Stomach",11 µM
same,IC50,"SNU-16, SNU-16, Stomach",11 µM
same,EC50,"SNU-423, SNU-423, Liver",9.3 µM
same,GI50,"SNU-423, SNU-423, Liver",9.28 µM
same,IC50,"SNU-423, SNU-423, Liver",9.31 µM
same,EC50,"SR, Lymphoma",4.39 µM
same,GI50,"SR, Lymphoma",4.39 µM
same,IC50,"SR, Lymphoma",4.39 µM
same,EC50,"ST486, ST486, Lymphoma",2.66 µM
same,GI50,"ST486, ST486, Lymphoma",2.65 µM
same,IC50,"ST486, ST486, Lymphoma",2.66 µM
same,EC50,"SU-DHL10, SU-DHL-10, Lymphoma",7.68 µM
same,GI50,"SU-DHL10, SU-DHL-10, Lymphoma",7.67 µM
same,IC50,"SU-DHL10, SU-DHL-10, Lymphoma",7.68 µM
same,EC50,"SU-DHL-4, SU-DHL-4, Lymphoma",5.74 µM
same,GI50,"SU-DHL-4, SU-DHL-4, Lymphoma",5.74 µM
same,IC50,"SU-DHL-4, SU-DHL-4, Lymphoma",5.74 µM
same,EC50,"SU-DHL-5, SU-DHL-5, Lymphoma",3.8 µM
same,GI50,"SU-DHL-5, SU-DHL-5, Lymphoma",3.8 µM
same,IC50,"SU-DHL-5, SU-DHL-5, Lymphoma",3.8 µM
same,EC50,"SU-DHL-8, SU-DHL-8, Lymphoma",3.9 µM
same,GI50,"SU-DHL-8, SU-DHL-8, Lymphoma",3.9 µM
same,IC50,"SU-DHL-8, SU-DHL-8, Lymphoma",3.9 µM
same,EC50,"SU.86.86, SU.86.86, Pancreas",> 30 µM
same,GI50,"SU.86.86, SU.86.86, Pancreas",> 30 µM
same,IC50,"SU.86.86, SU.86.86, Pancreas",> 30 µM
same,EC50,"SUP-T1, SUP-T1, Lymphoma",6.51 µM
same,GI50,"SUP-T1, SUP-T1, Lymphoma",6.49 µM
same,IC50,"SUP-T1, SUP-T1, Lymphoma",6.51 µM
same,EC50,"SW48, SW48, Colon",13 µM
same,GI50,"SW48, SW48, Colon",13 µM
same,IC50,"SW48, SW48, Colon",13 µM
same,EC50,[9],11 µM
same,GI50,[9],11 µM
same,IC50,[9],11 µM
same,EC50,[10],> 30 µM
same,GI50,[10],> 30 µM
same,IC50,[10],> 30 µM
same,EC50,"SW837, SW837, Colon",18.9 µM
